US8946413B2 (Pfizer Inc., priority 2008, dated 2015)
Read-outs that look alike come from different tables or passages of the source.

Target: T1, CCR2 (Homo sapiens, UniProt P41597)
T1 construct: (leukophoresis pack); host or cells: human peripheral blood mononuclear cells (PBMCs) from a normal human leukophoresis pack
Assay: hCCR2 (125-I hMCP-1) small molecule binding assay on human PBMCs
Details: 125I-MCP-1, human PBMCs
Excerpt: The CCR2 antagonist activity of compounds of the invention can be reported as the inhibitor concentration required for 50% inhibition (IC50 values) of specific binding in receptor binding assays using 125I-labeled MCP-1, as ligand, and Peripheral Blood Mononuclear Cells (PBMCs) prepared from normal human whole blood via density gradient centrifugation. Specific binding is defined as the total binding (e.g., total cpm on filters) minus the non-specific binding. Non-specific binding is defined as the amount of cpm still defected in the presence of excess unlabeled competitor (e.g., MCP-1),
Human PBMCs were used to test compounds of the invention in a binding assay. For example, 200,000 to 500,000 cells were incubated with 0.1 to 0.2 nM 125I-labeled MCP-1, with or without unlabeled competitor (10 nM MCP-1) or various concentrations of compounds to be tested. 125I-labeled MCP-1, were prepared by suitable methods or purchased from commercial vendors (Perkin Elmer, Boston Mass.). The binding reactions were performed in 50 to 250 μL of a binding buffer consisting of […] pH 7.2, and 0.1% BSA (bovine serum albumin), for 30 minutes at room temperature. The binding reactions were terminated by harvesting the membranes by rapid filtration through glass fiber filters (Perkin Elmer) which was presoaked in 0.3% polyethyleneimine or Phosphate Buffered Saline (PBS). The filters were rinsed with approximately 600 μL of binding buffer containing, 0.5 M NaCl or PBS, then dried, and the amount of bound radioactivity was determined by counting on a Gamma Counter (Perkin Elmer).
More specifically, the following assay may be employed to determine IC50 values for the compounds of the present invention.
hCCR2 (125-I hMCP-1) Small Molecule Binding Assay
Normal human leukophoresis pack contents, available from Biological Specialty Corporation, Colmar, Pa., is diluted 1:1 with PBS, divided into 50 ml conical tubes (preferably less than 40 mls per tube), and underlayed with 10 mls of Ficoll-Paque PLUS (GE Healthcare 17-1440-02). The tubes are centrifuged at 2800 rpm in a clinical centrifuge at room temperature for 30 mins, with no brake. The plasma layer is suctioned, and the buffycoat layer is collected. The collected buffycoat layer is washed twice with 50 mls PBS, and centrifuged at 1400 rpm with brake. The cells are counted. The cells are then diluted to 1×10^7 cells per ml in binding buffer.
96 well plates (such as, for example, Millipore MultiScreen96 plates) are pre-wet with about 100 μl binding buffer (RPMI+0.1% BSA+20 mM HEPES), and blotted just prior to compound addition.
5 μl of 50 μM test compounds in 100% DMSO are dotted onto U-bottom polypropylene 96-well plates.
245 μl per well of Binding Buffer is added to each well for 1 μM compound concentration in 2% DMSO.
50 μl of 1 μM compound is transferred to pre-wetted Millipore plates. 50 μl per well of 1×10E7 cells per ml of freshly prepared human PBMCs are added.
The samples are pre-incubated at room temperature for 30 minutes or 1 hour.
50 μl of 450 pM 125-I-hMCP-1 (Perkin-Elmer/NEN cat#NEX332025UC) is added for a final concentration 125-I-hMCP-1 of 150 pM per well.
The final test compound concentration is 0.333 uM in 150 μl total volume with 0.67% DMSO in all wells. Controls for this assay consist of 0% inhibition and 100% inhibition with 1 uM hMCP-1 (saturating conditions). All wells are run in duplicate. Controls may be in replicates of eight.
The samples are incubated at room temperature for 30 minutes.
The buffer is suctioned through the Millipore plates. The plates are washed three times with Wash Buffer (PRMI+0.1% BSA+20 mM HEPES+ 0.4 M NaC).
The plate underdrain is removed. The plate filters are allowed to dry. The filters are then punched out into plastic tubes.
Finally, the sample is counted an a Gamma Counter.
All IC50 plates were repeated for an n=2.
The following table summarizes the IC50 values identified through the described assay.

[1] = 30 min preincubation, read-out: IC50 (nM) 30 min preinc
[2] = 1 hr preincubation, read-out: IC50 (nM) 1 hr preinc

T1 sequence (P41597 whole entry): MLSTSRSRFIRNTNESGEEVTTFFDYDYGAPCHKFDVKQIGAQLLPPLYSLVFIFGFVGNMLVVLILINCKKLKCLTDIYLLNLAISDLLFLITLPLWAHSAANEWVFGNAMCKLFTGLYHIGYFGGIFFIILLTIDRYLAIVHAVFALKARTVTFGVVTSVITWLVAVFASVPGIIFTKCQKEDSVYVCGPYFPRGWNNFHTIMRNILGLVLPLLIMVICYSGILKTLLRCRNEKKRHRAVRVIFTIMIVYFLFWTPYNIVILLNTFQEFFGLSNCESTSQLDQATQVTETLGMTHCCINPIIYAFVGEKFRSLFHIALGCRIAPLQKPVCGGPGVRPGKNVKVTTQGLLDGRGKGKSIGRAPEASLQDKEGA

SMILES | IC50 [1] [nM] | IC50 [2] [nM]
CC[C@]1(C(=O)N2C[C@@H]3C[C@H]2CN3c2nccc(C(F)(F)F)n2)CC[C@@H](N[C@H]2CCOC[C@H]2OC)C1 [Example 2, 1,5-anhydro-2,3-dideoxy-3-{[(1R,3S)-3-ethyl-3-({(1S,4S)-5-[4-(trifluoromethyl)pyrimidin-2-yl]-2,5-diazabicyclo[2.2.1]hept-2-yl}carbonyl)cyclopentyl]amino}-4-O-methyl-D-erythro-pentitol] | 3.16 | –
CC[C@]1(C(=O)N2C[C@@H]3C[C@H]2CN3c2cncc(C(F)(F)F)n2)CC[C@@H](N[C@H]2CCOC[C@H]2OC)C1 [Example 4, 1,5-anhydro-2,3-dideoxy-3-{[(1R,3S)-3-ethyl-3-({(1S,4S)-5-[6-(trifluoromethyl)pyrazin-2-yl]-2,5-diazabicyclo[2.2.1]hept-2-yl}carbonyl)cyclopentyl]amino}-4-O-methyl-D-erythro-pentitol] | 3.98 | –
CC[C@]1(C(=O)N2C[C@@H]3C[C@H]2CN3c2cccc(C(F)(F)F)n2)CC[C@@H](N[C@H]2CCOC[C@H]2OC)C1 [Example 6, 1,5-anhydro-2,3-dideoxy-3-{[(1R,3S)-3-ethyl-3-({(1S,4S)-5-[6-(trifluoromethyl)pyridin-2-yl]-2,5-diazabicyclo[2.2.1]hept-2-yl}carbonyl)cyclopentyl]amino}-4-O-methyl-D-erythro-pentitol] | 1.73 | –
CC[C@]1(C(=O)N2C[C@@H]3C[C@H]2CN3c2nccc(C(F)(F)F)c2F)CC[C@@H](N[C@H]2CCOC[C@H]2OC)C1 [Example 8, 1,5-anhydro-2,3-dideoxy-3-{[(1R,3S)-3-ethyl-3-({(1S,4S)-5-[3-fluoro-4-(trifluoromethyl)pyridin-2-yl]-2,5-diazabicyclo[2.2.1]hept-2-yl}carbonyl)cyclopentyl]amino}-4-O-methyl-D-erythro-pentitol] | 10.7 | –
CO[C@@H]1COCC[C@@H]1N[C@@H]1CC[C@@](C(=O)N2C[C@@H]3C[C@H]2CN3c2nccc(C(F)(F)F)n2)(C(C)C)C1 [Example 12, 1,5-anhydro-2,3-dideoxy-3-{[(1R,3S)-3-isopropyl-3-({(1S,4S)-5-[4-(trifluoromethyl)pyrimidin-2-yl]-2,5-diazabicyclo[2.2.1]hept-2-yl}carbonyl)cyclopentyl]amino}-4-O-methyl-D-erythro-pentitol] | 11.1 | 1.7
CO[C@@H]1COCC[C@@H]1N[C@@H]1CC[C@@](C(=O)N2C[C@@H]3C[C@H]2CN3c2cncc(C(F)(F)F)n2)(C(C)C)C1 [Example 14, 1,5-anhydro-2,3-dideoxy-3-{[(1R,3S)-3-isopropyl-3-({(1S,4S)-5-[6-(trifluoromethyl)pyrazin-2-yl]-2,5-diazabicyclo[2.2.1]hept-2-yl}carbonyl)cyclopentyl]amino}-4-O-methyl-D-erythro-pentitol] | 10.4 | 2.3
CO[C@@H]1COCC[C@@H]1N[C@@H]1CC[C@@](C(=O)N2C[C@@H]3C[C@H]2CN3c2cccc(C(F)(F)F)n2)(C(C)C)C1 [Example 16, 1,5-anhydro-2,3-dideoxy-3-{[(1R,3S)-3-isopropyl-3-({(1S,4S)-5-[6-(trifluoromethyl)pyridin-2-yl]-2,5-diazabicyclo[2.2.1]hept-2-yl}carbonyl)cyclopentyl]amino}-4-O-methyl-D-erythro-pentitol] | 9.95 | 1.1

Results, then the molecule that gave them:

IC50 [1] [nM] | IC50 [2] [nM] | SMILES
2.47 | – | CC[C@]1(C(=O)N2C[C@@H]3C[C@H]2CN3c2cc(C(F)(F)F)ccn2)CC[C@@H](N[C@H]2CCOC[C@H]2OC)C1 [Example 1, 1,5-anhydro-2,3-dideoxy-3-{[(1R,3S)-3-ethyl-3-({(1S,4S)-5-[4-(trifluoromethyl)pyridin-2-yl]-2,5-diazabicyclo[2.2.1]hept-2-yl}carbonyl)cyclopentyl]amino}-4-O-methyl-D-erythro-pentitol]
17.8 | – | CC[C@]1(C(=O)N2C[C@@H]3C[C@H]2CN3c2cc(C(F)(F)F)ncn2)CC[C@@H](N[C@H]2CCOC[C@H]2OC)C1 [Example 3, 1,5-anhydro-2,3-dideoxy-3-{[(1R,3S)-3-ethyl-3-({(1S,4S)-5-[6-(trifluoromethyl)pyrimidin-4-yl]-2,5-diazabicyclo[2.2.1]hept-2-yl}carbonyl)cyclopentyl]amino}-4-O-methyl-D-erythro-pentitol]
13.3 | – | CC[C@]1(C(=O)N2C[C@@H]3C[C@H]2CN3c2ccnc(C(F)(F)F)n2)CC[C@@H](N[C@H]2CCOC[C@H]2OC)C1 [Example 5, 1,5-anhydro-2,3-dideoxy-3-{[(1R,3S)-3-ethyl-3-({(1S,4S)-5-[2-(trifluoromethyl)pyrimidin-4-yl]-2,5-diazabicyclo[2.2.1]hept-2-yl}carbonyl)cyclopentyl]amino}-4-O-methyl-D-erythro-pentitol]
17.1 | – | CC[C@]1(C(=O)N2C[C@@H]3C[C@H]2CN3c2ccnc(C(F)(F)F)c2)CC[C@@H](N[C@H]2CCOC[C@H]2OC)C1 [Example 7, 1,5-anhydro-2,3-dideoxy-3-{[(1R,3S)-3-ethyl-3-({(1S,4S)-5-[2-(trifluoromethyl)pyridin-4-yl]-2,5-diazabicyclo[2.2.1]hept-2-yl}carbonyl)cyclopentyl]amino}-4-O-methyl-D-erythro-pentitol]
30.7 | – | CO[C@@H]1COCC[C@@H]1N[C@@H]1CC[C@](C)(C(=O)N2C[C@@H]3C[C@H]2CN3c2cc(C(F)(F)F)ccn2)C1 [Example 9, 1,5-anhydro-2,3-dideoxy-3-{[(1R,3S)-3-methyl-3-({(1S,4S)-5-[4-(trifluoromethyl)pyridine-2-yl]-2,5-diazabicyclo[2.2.1]hept-2-yl}carbonyl)cyclopentyl]amino}-4-O-methyl-D-erythro-pentitol]
83.8 | – | CO[C@@H]1COCC[C@@H]1N[C@@H]1CC[C@](C)(C(=O)N2C[C@@H]3C[C@H]2CN3c2cncc(C(F)(F)F)n2)C1 [Example 10, 1,5-anhydro-2,3-dideoxy-3-{[(1R,3S)-3-methyl-3-({(1S,4S)-5-[6-(trifluoromethyl)pyrazin-2-yl]-2,5-diazabicyclo[2.2.1]hept-2-yl}carbonyl)cyclopentyl]amino}-4-O-methyl-D-erythro-pentitol]
6.72 | 2.44 | CO[C@@H]1COCC[C@@H]1N[C@@H]1CC[C@@](C(=O)N2C[C@@H]3C[C@H]2CN3c2cc(C(F)(F)F)ccn2)(C(C)C)C1 [Example 11, 1,5-anhydro-2,3-dideoxy-3-{[(1R,3S)-3-isopropyl-3-({(1S,4S)-5-[4-(trifluoromethyl)pyridin-2-yl]-2,5-diazabicyclo[2.2.1]hept-2-yl}carbonyl)cyclopentyl]amino}-4-O-methyl-D-erythro-pentitol]
40 | 4.6 | CO[C@@H]1COCC[C@@H]1N[C@@H]1CC[C@@](C(=O)N2C[C@@H]3C[C@H]2CN3c2ccnc(C(F)(F)F)n2)(C(C)C)C1 [Example 15, 1,5-anhydro-2,3-dideoxy-3-{[(1R,3S)-3-isopropyl-3-({(1S,4S)-5-[2-(trifluoromethyl)pyrimidin-4-yl]-2,5-diazabicyclo[2.2.1]hept-2-yl}carbonyl)cyclopentyl]amino}-4-O-methyl-D-erythro-pentitol]
13.7 | 5.8 | CO[C@@H]1COCC[C@@H]1N[C@@H]1CC[C@@](C(=O)N2C[C@@H]3C[C@H]2CN3c2ccnc(C(F)(F)F)c2)(C(C)C)C1 [Example 17, 1,5-anhydro-2,3-dideoxy-3-{[(1R,3S)-3-isopropyl-3-({(1S,4S)-5-[2-(trifluoromethyl)pyridin-4-yl]-2,5-diazabicyclo[2.2.1]hept-2-yl}carbonyl)cyclopentyl]amino}-4-O-methyl-D-erythro-pentitol]
